For the series the following is noted: 511.35 K; Liquid; Ebulliometric method (Recirculating still).

SMILES strings stand for the structures. Numbers after ± are expanded uncertainties.

Turning to `O=C(OCCOCCOC(=O)c1ccccc1)c1ccccc1` [diethylene glycol dibenzoate], the “vapor or sublimation pressure” value was 1.015 ± 0.1 kPa.
